Measured values reported in PMC11602988 (The Journal of Biological Chemistry, 2024).
Residue numbers refer to the chain shown, from its start. “Also recorded” adds a separate entry of the source.

Key:
OCT1 WT [1] = biological target: T1, OCT1 WT (Homo sapiens, UniProt O15245); test: Uptake screening (transport ratio over empty vector), HEK293 cells overexpressing OCT1 WT; type: cell-based; set-up: expressed in transfected cells;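 further: intracellular substrate levels quantified by HPLC–tandem mass spectrometry after uptake in HBSS+ buffer at 37 °C, stable Flp-In HEK293 lines, fold change versus empty vector–transfected cells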
T1 sequence (O15245 1-554): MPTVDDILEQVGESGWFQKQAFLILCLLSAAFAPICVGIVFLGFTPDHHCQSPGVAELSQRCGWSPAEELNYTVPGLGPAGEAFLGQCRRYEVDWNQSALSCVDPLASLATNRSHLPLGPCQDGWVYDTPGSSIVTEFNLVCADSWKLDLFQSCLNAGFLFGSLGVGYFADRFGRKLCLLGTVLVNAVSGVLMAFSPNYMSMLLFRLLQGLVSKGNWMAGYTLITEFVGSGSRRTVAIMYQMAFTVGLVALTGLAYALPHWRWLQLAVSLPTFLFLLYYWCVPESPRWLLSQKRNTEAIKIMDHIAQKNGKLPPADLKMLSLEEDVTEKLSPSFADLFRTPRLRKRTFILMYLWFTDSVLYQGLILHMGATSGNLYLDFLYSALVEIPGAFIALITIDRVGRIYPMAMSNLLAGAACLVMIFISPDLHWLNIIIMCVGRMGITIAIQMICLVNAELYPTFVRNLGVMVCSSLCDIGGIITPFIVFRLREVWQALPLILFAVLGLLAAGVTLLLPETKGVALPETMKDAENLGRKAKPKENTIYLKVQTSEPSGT
Protocol: (§1) All experiments were carried out using transporter-overexpressing HEK293 cells. […] Cells were cultivated in Dulbecco’s Modified Eagle’s medium supplemented with 10% fetal calf serum, 100 U/ml penicillin, and 100 μg/ml streptomycin. Cells were passaged twice a week and kept in culture for no longer than 30 passages.
(§2) For uptake studies, 300,000 HEK293 cells were plated in each well of 24-well plates precoated with poly-D-lysine 48 prior to the experiment. On the day of the experiment, cells were washed once with prewarmed to 37 °C HBSS+ (Hank’s balanced salt solution supplemented with 10 mM Hepes, both Sigma-Aldrich). […] Uptake was stopped by adding ice-cold HBSS+ and cells were washed twice with ice-cold buffer before cell lysis was done using 80% acetonitrile containing an appropriate internal standard for eventual mass spectrometry. Relative quantification was done by comparison of transporter-overexpressing cells to empty vector–transfected controls. For uptake kinetic experiments, cells were incubated with increasing concentrations of substrate dissolved in HBSS+. Absolute quantification was done later by comparison to a standard curve in lysis buffer with known concentration.
(§3) Intracellular drug concentrations were detected and quantified by HPLC coupled to mass spectrometry. […] Substance-specific conditions were used to adjust the retention times of the analytes.
(§4) Transport ratios were determined as relative fold-increase of the uptake in transporter-overexpressing cells over empty vector–transfected control cells. For transport kinetic experiments, absolute substrate quantification was done by signal comparison to a standard curve with known concentrations. Net uptake was then determined by subtracting the uptake into empty vector–transfected cells from transporter-overexpressing cells. […] Vmax defines the maximum transport velocity, Km refers to the substrate concentration required to reach half vmax. The intrinsic clearance Clint is the ratio of vmax over Km.

OCT1 Phe244Ala variant [2] = biological target: T2, OCT1 Phe244Ala variant (Homo sapiens, UniProt O15245, F244A); test: Uptake screening (transport ratio over empty vector), HEK293 cells overexpressing OCT1 Phe244Ala variant; type: cell-based; set-up: expressed in transfected cells; conditions: for relative_Phe244Ala_uptake_in%: Phe244Ala uptake relative to OCT1 WT;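 on all read-outs here: stably transfected HEK293 cells, intracellular substrate quantified by HPLC-tandem mass spectrometry in cell lysates, uptake in HBSS+ buffer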
T2 sequence (O15245 1-554 F244A): T1 sequence (O15245 1-554) with F244A

OCT1 Phe244Ala variant [3] = biological target: T2, OCT1 Phe244Ala variant; test: Stereoselective cell uptake of racemic substrates (chiral LC-MS/MS), OCT1 Phe244Ala variant; conditions: 2.5 μM racemic substance, 2 min
Protocol: (§5) Intracellular concentrations were quantified after chiral chromatography by mass spectrometry and are presented as mean ± SD of three independent experiments. […] Whenever the absolute steric conformation of the enantiomers was unknown, the enantiomers were termed according to their elution as enantiomer-1 (E1) and enantiomer-2 (E2).
as §2
Chromatography was carried out with in reversed-phase mode with an aqueous mobile phase buffered with ammonium acetate and supplemented with 2-propanol or methanol as organic modifiers (Table S2). Order of elution of enantiomers was obtained either by reference literature ([28], [29], [30], [31], [32], [33]) or by injecting single enantiomers. Whenever there was no information available, the first eluting enantiomer was referred to as E1 and the second as E2.
as §4

OCT1 WT [4] = biological target: T1, OCT1 WT; test: cell-based
Protocol: (§6) For cellular inhibition experiments, 300,000 HEK293 cells were plated in poly-D-lysine precoated 24 well plates 48 h in advance. To study transporter inhibition, cells were incubated with 2 μM (R,S)-ethambutol with and without 20 μM inhibitor both dissolved in HBSS+.
(§7) In inhibition experiments, transporter activity was calculated as it follows: %OCT1activity=[Substrateinhibited]−[SubstrateEV]/[Substratenon−inhibited]−[SubstrateEV]
(§8) Substrateinhibited is the uptake of ethambutol into transporter-overexpressing cells in presence of an inhibitor, whereas substratenon-inhibited refers to the ethambutol uptake without coincubation with an inhibitor. SubstrateEV refers to the ethambutol uptake into empty vector–transfected control cells. Percent inhibition values where then calculated as in the following: %transporterinhibition=100%−transporteractivity In concentration-dependent inhibition experiments, the transporter activity was plotted against the log10 of inhibitor concentrations. The data was then analyzed by the following formula to determine IC50 values: Y=Ymin+(Ymax−Ymin)/1+10^log10(IC50−x)∙hillslope
(§9) Y describes the transporter activity, whereas Ymax is to the maximum and Ymin to the minimal transporter activity. X refers to the log10 of inhibitor concentrations, IC50 characterizes the half-maximal inhibitory concentration, and hill slope describes the slope factor.

OCT1 Phe244Ala variant [5] = biological target: T2, OCT1 Phe244Ala variant; test: cell-based
Protocol: as §6, §7, §8, §9

OCT1 Phe244Ala variant [6] = biological target: T2, OCT1 Phe244Ala variant; conditions: cited from earlier work
OCT1 WT [7] = biological target: T1, OCT1 WT; test: Concentration-dependent uptake kinetics, HEK293 cells overexpressing OCT1 WT; conditions: for Clint: ratio of vmax over Km
Protocol: as §1, §2, §3, §4

OCT1 Phe244Ala variant [8] = biological target: T2, OCT1 Phe244Ala variant; test: Concentration-dependent uptake kinetics, HEK293 cells overexpressing OCT1 Phe244Ala; conditions: for Clint: ratio of vmax over Km;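 on all read-outs here: cells exposed to rising substrate concentrations in buffer, intracellular drug measured by HPLC-tandem mass spectrometry, quantified against a standard curve, uptake referenced to empty vector-transfected HEK293 controls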
Protocol: as §1, §2, §3, §4

OCT1 WT [9] = biological target: T1, OCT1 WT; test: Stereoselective cell uptake of racemic substrates (chiral LC-MS/MS), OCT1 WT; conditions: 2.5 μM racemic substance, 2 min
Protocol: as §5
For uptake studies, 300,000 HEK293 cells were plated in each well of 24-well plates precoated with poly-D-lysine 48 prior to the experiment. On the day of the experiment, cells were washed once with prewarmed to 37 °C HBSS+ (Hank’s balanced salt solution supplemented with 10 mM Hepes, both Sigma-Aldrich). […] Relative quantification was done by comparison of transporter-overexpressing cells to empty vector–transfected controls. […] Absolute quantification was done later by comparison to a standard curve in lysis buffer with known concentration. […]
Transport ratios were determined as relative fold-increase of the uptake in transporter-overexpressing cells over empty vector–transfected control cells. For transport kinetic experiments, absolute substrate quantification was done by signal comparison to a standard curve with known concentrations. Net uptake was then determined by subtracting the uptake into empty vector–transfected cells from transporter-overexpressing cells. […]

OCT1 Phe244Ala variant [10] = biological target: T2, OCT1 Phe244Ala variant; test: Inhibition of (R,S)-ethambutol uptake, HEK293 cells overexpressing OCT1 Phe244Ala; conditions: 20 μM inhibitor, 2 μM (R,S)-ethambutol, 5 min
Protocol: as §6, §7, §8, §9

[11] = uptake ratio of OCT1 WT-overexpressing HEK293 cells over empty vector
[12] = uptake ratio of OCT1 Phe244Ala-overexpressing HEK293 cells over empty vector

Compound | Mean_transport_ratio_WT (OCT1 WT [1]; [11]) | relative_Phe244Ala_uptake_in% (OCT1 Phe244Ala variant [2]) | Mean_transport_ratio_Phe244Ala (OCT1 Phe244Ala variant [2]; [12]) | Stereoselectivity of Phe244Ala variant compared to WT (OCT1 Phe244Ala variant [3]) | IC50 (OCT1 WT [4]) | IC50 (OCT1 Phe244Ala variant [5]) | Clint (OCT1 WT [7]; OCT1 WT) | Clint (OCT1 Phe244Ala variant [8]; OCT1 Phe244Ala) | also measured
CN[C@@H]1CCc2[nH]c3ccc(C(N)=O)cc3c2C1 [Frovatriptan] | 22.068 | 43.181% | 10.097 | opposite stereoselectivities; also recorded: only one enantiomer of the racemic mixtures showed altered transport | – | – | – | – | –
CC(Cc1ccc(O)cc1)NCC(O)c1cc(O)cc(O)c1 (centres unmarked) [Fenoterol] | – | – | – | opposite stereoselectivities; also recorded: only one enantiomer of the racemic mixtures showed altered transport | 0.541 µM | 5.53 µM | – | – | –
CN(C)C(=N)N=C(N)N [Metformin] | 6.891 | 14.754% | 1.869 | – | – | – | 3.71 ± 2.82 ml × g Protein^−1 × min^−1 | 1.54 ± 2.02 ml × g Protein^−1 × min^−1 | Consequence of the Phe244Ala substitution on transport (OCT1 Phe244Ala variant [6]): complete loss of transport activity; Transport activity of Phe244Ala in % of WT activity (OCT1 Phe244Ala variant [2]; 2.5 μM substrate, 2 min, Phe244Ala uptake relative to WT): ~10%; vmax (OCT1 WT [7]; OCT1 WT, HEK293, 2 min incubation, net uptake): 10,813 ± 2176 pmol × mg protein^−1 × min^−1; Km at 2 min (OCT1 WT [7]; human, HEK293 cells overexpressing OCT1 WT): 2910 ± 1630 µM; vmax (OCT1 Phe244Ala variant [8]; OCT1 Phe244Ala, HEK293, 2 min incubation, net uptake): 4361 ± 1497 pmol × mg protein^−1 × min^−1; Km at 2 min (OCT1 Phe244Ala variant [8]; human, HEK293 cells overexpressing OCT1 Phe244Ala): 2830 ± 2730 µM; Maximum transport capacity (vmax), Phe244Ala compared to WT (OCT1 Phe244Ala variant [8]; uptake kinetics, in words): reduced transport capacity
O=C(NCCNCC(O)COc1ccc(O)cc1)N1CCOCC1 (centres unmarked) [Xamoterol] | – | 54.211% | – | only one enantiomer of the racemic mixtures showed altered transport | – | – | – | – | Mean_transport_ratio_WT (OCT1 WT [1]; uptake ratio over empty vector, HEK293 cells overexpressing OCT1 WT): 34.864; Mean_transport_ratio_Phe244Ala (OCT1 Phe244Ala variant [2]; uptake ratio over empty vector, HEK293 cells overexpressing OCT1 Phe244Ala): 19.358; Stereoselectivity of uptake via WT OCT1 (OCT1 WT [9]): stereoselective uptake; Stereoselectivity of transport by the Phe244Ala variant (OCT1 Phe244Ala variant [3]): lacked any stereoselective transport
CN1CCN(CC(=O)N2c3ccccc3C(=O)Nc3cccnc32)CC1 [Pirenzepine] | – | – | – | – | 104 µM | 23.3 µM | 0.43 ± 0.85 ml × g Protein^−1 × min^−1 | 2.74 ± 2.15 ml × g Protein^−1 × min^−1 | Fold increased uptake rate by Phe244Ala compared to WT (OCT1 Phe244Ala variant [2]; 2.5 μM substrate, 2 min): 8.0 fold; Inhibition of the Phe244Ala mutant compared to the WT transporter (screening) (OCT1 Phe244Ala variant [10]): more potent inhibition; Km, Phe244Ala compared to WT (OCT1 Phe244Ala variant [8]; uptake kinetics, in words): lower Km values
